From a melting point compilation (Tetko et al.; mined from patent text by program, amines drawn as free bases though some values may be those of a salt) come the findings set out here.

Bounds are passed on as bounds.

The compound `CC(C)(C)OC(=O)N1CCC(CCNC2(c3ccccc3Cl)C(=O)Nc3cc(Cl)c(Cl)cc32)CC1` (stereo not drawn) had a melting point of 248 to 249 °C. Turning to `CCOC(=O)/C=C/c1ccc(Cl)nn1`, the melting point was 106 to 110 °C. For `CCCC(=O)N(CCC)C1Cc2ccc(-c3ccc(=O)[nH]n3)cc2C1` (single isomer, unassigned; (+)) the value was 159 to 160 °C; for `Cc1oc2nc3c(c(N)c2c1C)C(=O)CCC3`, 190 to 198 °C. To `CC(=O)Nc1cc(C)c2c(C)c(C)[nH]c2c1` belongs 255 °C; to `COc1cc(CC(C#N)=CNc2ccccc2)cc(OC)c1NC(C)=O`, 165 to 167 °C; to `Nc1cc(Cl)c(Cl)cc1C(=O)O`, 196 to 203 °C. For `Cn1nc(-c2ccccc2)nc1-c1ccccn1` the value was 106 to 108 °C; for `N#Cc1ccc2cccc(N3CCN(CCCCOc4ccc5c(n4)NC(=O)NCC5)CC3)c2c1`, 168 to 170 °C. In the case of `CS(=O)(=O)c1c(Sc2ccccc2)cccc1C(=O)O`, the melting point lay within 185 to 186 °C. For `CCCOc1cc(CO)n(Cc2ccc3ccccc3n2)n1` the value was 90 to 91 °C; for `CC(C)COCCOc1ccc(OCC(O)CNCCNC(=O)N2CCOCC2)cc1` (stereo not drawn), 95 to 96 °C; for `COc1ccc(-c2nc3cc(Cl)c(Cl)cc3n2C(=O)OCc2ccccc2)cc1NS(=O)(=O)c1cccs1`, 195 to 198 °C. To `COCNC(=O)C1C(c2ccc(F)cc2)CC2CCC1N2C` (stereo not drawn) belongs 140 to 142 °C. To `CCCCCCCCCCCCOC(=O)c1cc(N)ccc1[N+](=O)[O-]` belongs 58 to 59 °C; to `CC(=O)N1c2ccc(-c3ccc(C=O)cc3)cc2C(NC=O)CC1C` (stereo not drawn), 85.6 °C. Turning to `NCCCCN1C(=O)NC(c2ccccc2)(c2ccccc2)C1=O`, the melting point fell in the range of 137 to 138 °C. For `COc1ccc(F)cc1C(C)(C)CC(O)(Cc1ccc(C(C)=NO)cc1Cl)C(F)(F)F` (stereo not drawn) the value was 136 to 138 °C; for `N#CN=C1CCCN1C1=CC(CF)(CF)Oc2ccc(C(F)(F)C(F)(F)F)cc21`, 207 to 210 °C; for `Cc1nc(OCC(F)(F)F)c([N+](=O)[O-])c(N2CCC(c3ccc(F)cc3)CC2)n1`, 61 to 64 °C. For `CC1(c2ccc(O)cc2)CC1(Cl)Cl` (stereo not drawn) the value was 125 to 126 °C. Take `CC(C)(C)OC(=O)N1CCN(c2nsnc2Cl)CC1`: the melting point lay within 83 to 86 °C. To `CC(C)(C)c1cc(C(=O)Oc2ccc(Cl)c(N)c2)cc(C(C)(C)C)c1O` belongs 64 to 66 °C; to `Cc1ccc(C(=O)c2cccc3c2CCC3=O)cc1`, 105 to 108 °C; to `O=C(O)CC[C@H]1CC[C@H]2CN[C@H](C(=O)O)C[C@H]2C1` (racemic), 190 to 191 °C.

For `CCOc1csc2c(=O)c(C(N)=O)cn(C)c12`, the melting point was 286 to 287 °C.

With `CCOCCCc1ccc(-c2ccc3c(c2)C=C(C(=O)Nc2ccc(CN(C)C4CCOCC4)cc2)CCS3(=O)=O)cc1`, the melting point lay in the range of 217 to 219 °C.

Compound `Cc1nnc(-c2ccc3occ(-c4cccc(OC(F)(F)F)c4)c3n2)o1` registered a melting point of 146 to 147 °C. For `CN(c1cccc2cc(C3=NCC(CN4CCS(=O)CC4)S3)[nH]c12)S(=O)(=O)c1ccccn1` (stereo not drawn) the value was 193 to 194 °C; for `O=C(O)c1ccccc1Oc1ccc(Cl)cn1`, 159 °C.

In the case of `CC(=O)Oc1cccc(-c2noc(C)n2)c1`, the melting point turned out to be 94 °C. To `CCOC(=O)C(N=Nc1ccc(Br)cc1C(=O)c1ccccn1)NC(=O)CCl` (stereo not drawn) belongs 160 to 162 °C; to `CCCCOc1ccc(C(=O)Nc2ccc3ccc(Cl)nc3n2)cc1`, 140 °C. For `CCOC(=O)C(SC)C(=O)Nc1ccc(Br)cc1C` (stereo not drawn) the value was 85 to 88 °C; for `COc1cc2c(cc1OC)-c1cc(Nc3ccc(C)cc3C)nc(=O)n1CC2`, 239 to 241 °C.

For the compound `CS(=O)CC(=O)Nc1c(C(=O)c2ccccc2)[nH]c2cc(Cl)ccc12` (stereo not drawn), the melting point lay within 191 to 192 °C.

On to `COc1nc2cc(Cl)ccc2nc1Cl`, for which the melting point is 92 to 95 °C. To `CC(C)(C)c1cnc(-c2nn(-c3ccc(F)cc3F)c3c2C2CCC3C2)o1` (stereo not drawn) belongs 58 to 60 °C. `C=C(C)OC(=O)N1c2ccc(C)cc2NC(=O)C1(C)C` displayed a melting point of 185 °C.

In the case of `COP(=O)(Cc1ccc(-c2nc3ccccc3s2)nc1)OC`, the melting point was 152 °C. For `COC(=O)c1ccc(OC)c(NC(=N)c2ccc(F)cc2)c1` the value was 120 °C; for `CC(=O)c1ccc2c(c1)[C@@H](NC(=O)Nc1ccccc1)[C@H](O)C(C)(C)O2` (relative stereo), 210 to 211 °C.

`CC(C)(C)OC(=O)N1CCN(CCOc2cccc3c2c2cccc4c2n3C(c2ccccc2)CO4)CC1` (stereo not drawn) came in with a melting point of 72 °C. To `CCCC(=O)c1c[nH]c2c(OC)nccc2c1=O` belongs 206 to 207 °C. For `CCCCCCC(C(=O)N[C@@H](CC(=O)O)C(=O)O)n1cnc2cc(-c3ccccc3-c3nn[nH]n3)ccc21` (stereo partly drawn) the value was 190 to 195 °C; for `COc1ccc(-c2ccc(Cl)nn2)cc1Br`, 226 to 228 °C.

`NC1CCN(c2cnccn2)CC1` displayed a melting point of 158 to 160 °C.

Regarding `CN(CCN1CCN(c2cccc(C(F)(F)F)n2)CC1)C(=O)c1ccc(F)cc1`, the melting point is 144 °C. For `OCCCc1ccc2oc(Cc3ccc4ccccc4c3)nc2c1` the value was 102 to 103 °C; for `CC(=O)Nc1cc2c(cc1C#N)CCC2`, 172 °C.

As for `CC(=O)Nc1cc2c(cc1Br)CCC2`, the melting point stood at 138 °C.

The compound `Cc1cccc(-c2[nH]c(C(C)C)nc2-c2ccc(F)c(-c3ccc(C)[nH]3)c2)n1` had a melting point of 118 to 121 °C. For `O=C1Cc2cc3ccccc3nc2N1` the value was 261 °C.

As for `CC(C)(CO)c1cn2nc(NCCCN3CCC(OC(c4ccccc4)c4ccccc4)CC3)ccc2n1`, the melting point was in the range of 105 to 108 °C. For `CC(C)(C)Nc1c(NCc2cc3cc([N+](=O)[O-])ccc3o2)c(=O)c1=O` the value was > 300 °C; for `O=c1cnc2c(NC(CO)CO)nc(SCc3cccs3)nc2[nH]1`, 220 to 223 °C.

The compound `CCn1c2ccccc2c2cc(C=C(C#N)c3cc(C(F)(F)F)cc(C(F)(F)F)c3)ccc21` gave a melting point of 164 to 165 °C.

`COc1c(C)c(N2CCN(c3ccc(OC(F)(F)F)cc3)CC2)c(C)c2c1OC(C)(C)C2` registered a melting point of 162 to 164 °C.

As to `CCN1CCC(c2c[nH]c3ccc(NC(=O)c4ccco4)cc23)CC1`, the melting point lay in the range of 178 to 179 °C. To `COc1ccc(C2SC(=O)NC2C(=O)NCCO[N+](=O)[O-])cc1` (stereo not drawn) belongs 142 to 143 °C. To `COc1cc(Nc2c(C#N)cnc3cc(C#Cc4ccncc4)sc23)c(Cl)cc1Cl` belongs 221 to 223 °C; to `CSCC(=O)[C@H](COCc1ccccc1)NC(=O)[C@H](CC(C)C)NC(=O)OCc1ccccc1`, 58 to 70 °C; to `CCC(=Cc1ccccc1)C(=O)c1ccc(OC)c(Cl)c1Cl`, 127 to 130 °C.
